The values that follow come from the supplement of paper PMC6470124.

The nature of data set [1]: LC retention time (Atlantis T3, 5-95% MeOH gradient, 0.1% formic acid); higher = more retained / less polar. A digest of the protocol:
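Retention times were recorded for reference standards (purity ≥ 95%) on a polar reversed-phase C18 column (Atlantis T3, 3 × 150 mm, 3 μm) at 0.3 mL/min. Elution used water and methanol, each with 0.1% formic acid, in a gradient from 5 to 95% methanol over 17.5 min. Detection was by high-resolution tandem mass spectrometry on a QExactive Plus, with positive and negative electrospray in separate runs. Peaks were found and integrated in TraceFinder (5 ppm tolerance, at least three points per peak) and then checked by hand.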

A short description of data set [2]: absolute recovery over mixed-bed multilayer solid-phase extraction; higher = better recovery. The following applies: enrichment method: SPE. The gist of the method:
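Absolute recovery rests on background-corrected response ratios of pre- versus post-spiked samples, averaged over at least two replicates. Wastewater (100–250 mL, pH 6.5, glass-fibre filtered) was spiked at 1000 ng/L and unfiltered nanopure water (1000 mL) at 200 ng/L, before or after three-layer mixed-bed cartridge extraction or not at all, with exceptions for some classes. Analysis after internal standard addition used liquid chromatography with high-resolution tandem mass spectrometry in both ionisation modes.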

Data set [3] in a line: absolute recovery over vacuum-assisted evaporative concentration; higher = better recovery. Conditions: enrichment method: VEC. A digest of the protocol:
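Standards were spiked into water samples before concentration, after concentration or not at all; volumes were 6 mL influent, 15 mL effluent and 60 mL surface or nanopure water. Spiking levels were 200 ng/L for nanopure and surface water and 1000 ng/L for wastewater, adjusted by class and compound. After evaporation at 55 °C and 20 mbar to about 0.3 mL, samples were brought to 0.4 mL, centrifuged, given internal standards and analysed by LC-HRMS/MS. Absolute recovery equals (response ratio pre − unspiked)/(post − unspiked) × 100, based on averages of ≥ 2 replicates.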

As to `C[NH2+]C(CC(C)C)C(=O)NC1C(=O)NC(CC(N)=O)C(=O)NC2C(=O)NC3C(=O)NC(C(=O)NC(C(=O)[O-])c4cc(O)cc(O)c4-c4cc3ccc4O)C(O)c3ccc(c(Cl)c3)Oc3cc2cc(c3OC2OC(CO)C(O)C(O)C2OC2CC(C)([NH3+])C(O)C(C)O2)Oc2ccc(cc2Cl)C1O` (stereo not drawn) [Vancomycin], the LC retention time in data set [1] amounted to 9.01 min. For the same compound, the absolute recovery in data set [2] (nanopure water) was determined as 108%; in data set [2] (surface water) it was 90.4%; in data set [2] (wastewater effluent) it was 82%; in data set [2] (wastewater influent), 92.8%; in data set [3] (wastewater effluent) it was 108%; in data set [3] (wastewater influent), 109%.

Turning to `COc1ccc(C(C[NH+](C)C)C2(O)CCCCC2)cc1` (stereo not drawn) [Venlafaxin], in data set [1], the LC retention time came out at 14 min. Besides, the absolute recovery in data set [2] (nanopure water) was determined as 95.3%; in data set [2] (surface water) it was 96.8%; in data set [2] (wastewater effluent), 93.3%; in data set [2] (wastewater influent) it was 99.1%; in data set [3] (wastewater effluent) it was 106%; in data set [3] (wastewater influent), 100%.

As for `COc1ccc(C(C[N+](C)(C)[O-])C2(O)CCCCC2)cc1` (stereo not drawn) [Venlafaxine-N-Oxide], in data set [1], the LC retention time worked out at 14.6 min. The absolute recovery in data set [2] (nanopure water) is 93.2%; in data set [2] (surface water), 92.8%; in data set [2] (wastewater effluent), 94.6%; in data set [2] (wastewater influent) it was 79.7%; in data set [3] (wastewater effluent) it was 105%; in data set [3] (wastewater influent), 107%.

Consider `N#CC1CCCN1C(=O)C[NH2+]C12CC3CC(CC(O)(C3)C1)C2` (stereo not drawn) [Vildagliptin], for which, in data set [1], the LC retention time turned out to be 8.73 min. Further, the absolute recovery in data set [2] (nanopure water) is 92.8%; in data set [2] (surface water) it was 94.1%; in data set [2] (wastewater effluent), 92.8%; in data set [2] (wastewater influent), 93.2%; in data set [3] (wastewater effluent), 105%; in data set [3] (wastewater influent), 102%.

In data set [1], `C=CS(=O)(=O)[O-]` [Vinylsulfonic-acid] displayed an LC retention time of 3.84 min. In addition, the figures for the absolute recovery in data set [2] (nanopure water), in data set [3] (wastewater effluent) and in data set [3] (wastewater influent) were 1.5%, 103% and 108%, respectively.

`Cc1cc(C(C)(C)C)cc(C)c1CC1=[NH+]CCN1` [Xylometazolin] yielded an LC retention time in data set [1] of 15.7 min. The absolute recovery in data set [2] (nanopure water) was 87.3%; in data set [2] (surface water), 84%; in data set [2] (wastewater effluent), 85.4%; in data set [2] (wastewater influent) it was 97.2%; in data set [3] (wastewater effluent), 102%; in data set [3] (wastewater influent), 106%.

Regarding `Cc1cn(C2CC(N=[N+]=[N-])C(CO)O2)c(=O)[nH]c1=O` (stereo not drawn) [Zidovudine], the LC retention time in data set [1] turned out to be 13.1 min. The absolute recovery was found to be 98.2% in data set [2] (nanopure water); 93.4% in data set [2] (surface water); 93.9% in data set [2] (wastewater effluent); 97.1% in data set [2] (wastewater influent); 103% in data set [3] (wastewater effluent); 104% in data set [3] (wastewater influent).

As to `NS(=O)(=O)Cc1noc2ccccc12` [Zonisamide], the LC retention time in data set [1] came to 13.1 min. Moreover, the absolute recovery came to 84.8% in data set [2] (nanopure water); 88.8% in data set [2] (surface water); 88.4% in data set [2] (wastewater effluent); 107% in data set [2] (wastewater influent); 103% in data set [3] (wastewater effluent); 101% in data set [3] (wastewater influent).
